Laboratory results from ChEMBL document CHEMBL3603835, “Discovery of dihydroisoquinolinone derivatives as novel inhibitors of the p53-MDM2 interaction with a distinct binding mode” (Bioorg Med Chem Lett, 2015).
pIC50: −log10 of the molar value.

Key:
[1] = Antiproliferative activity against p53 deficient human Saos2 cells; conditions: SAOS-2
[2] = target: Tumour suppressor p53/oncoprotein Mdm2 (Homo sapiens, UniProt Q00987); assay: Inhibition of p53-MDM2 interaction (unknown origin) by TR-FRET assay; assay type: protein assay
Tumour suppressor p53/oncoprotein Mdm2, sequence (P04637 whole entry): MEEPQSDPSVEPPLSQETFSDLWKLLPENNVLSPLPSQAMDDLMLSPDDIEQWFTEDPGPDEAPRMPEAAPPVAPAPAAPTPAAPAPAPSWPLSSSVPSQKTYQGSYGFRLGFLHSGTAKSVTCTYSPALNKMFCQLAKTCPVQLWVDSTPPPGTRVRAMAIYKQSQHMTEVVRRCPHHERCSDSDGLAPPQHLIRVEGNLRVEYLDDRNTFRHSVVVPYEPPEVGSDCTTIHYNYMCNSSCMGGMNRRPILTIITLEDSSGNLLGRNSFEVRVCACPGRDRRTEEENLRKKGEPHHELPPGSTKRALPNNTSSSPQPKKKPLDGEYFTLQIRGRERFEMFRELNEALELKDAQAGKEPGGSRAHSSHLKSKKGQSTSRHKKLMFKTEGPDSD
Tumour suppressor p53/oncoprotein Mdm2, sequence (Q00987 whole entry): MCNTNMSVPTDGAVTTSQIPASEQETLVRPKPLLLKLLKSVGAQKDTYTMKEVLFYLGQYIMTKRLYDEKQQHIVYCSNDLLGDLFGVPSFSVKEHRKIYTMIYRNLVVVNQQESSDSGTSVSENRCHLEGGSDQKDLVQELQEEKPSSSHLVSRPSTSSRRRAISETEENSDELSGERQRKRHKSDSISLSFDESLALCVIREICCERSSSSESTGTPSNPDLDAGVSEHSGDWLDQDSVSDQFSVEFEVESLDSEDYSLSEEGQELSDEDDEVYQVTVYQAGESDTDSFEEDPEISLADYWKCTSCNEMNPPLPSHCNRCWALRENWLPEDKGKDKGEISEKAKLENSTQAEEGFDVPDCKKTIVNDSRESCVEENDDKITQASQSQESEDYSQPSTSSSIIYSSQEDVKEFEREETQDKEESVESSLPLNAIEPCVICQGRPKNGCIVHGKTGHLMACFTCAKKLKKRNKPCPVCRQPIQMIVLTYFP

SJSA-1 = assay: Antiproliferative activity against p53 positive human SJSA1 cells

SMILES | pIC50 [2] | pIC50 (SJSA-1) | pIC50 [1]
CCOc1cc2c(cc1OCC)C(c1ccc(Cl)cc1)N(c1ccc(Cl)cc1)C(=O)C2 (racemic) | 6.00 |  | 
CCOc1cc2c(cc1OCC)C(c1ccc(Cl)cc1)N(c1cccc(Cl)c1)C(=O)C2 (racemic) | 5.85 |  | 
CC[C@@H](C)Oc1cc2c(cc1OC)CC(=O)N(c1ccc(N(C)Cc3ccncc3)cc1)[C@H]2c1ccc(Cl)cc1 |  | 5.92 | 4.92
CC[C@@H](C)Oc1cc2c(cc1OC)CC(=O)N(c1ccc(N(C)Cc3ccncc3)cc1)[C@@H]2c1ccc(Cl)cc1 |  | 4.53 | < 4.52

Further lines, with some results ahead:

pIC50 [2] | pIC50 (SJSA-1) | SMILES | pIC50 [1]
6.27 | 4.78 | CCOc1cc2c(cc1OCC)C(c1ccc(Cl)cc1)N(c1ccc(OC)cc1)C(=O)C2 (racemic) | 4.71
6.92 |  | CC[C@@H](C)Oc1cc2c(cc1OC)CC(=O)N(c1ccc(N(C)Cc3ccc(F)cc3)cc1)C2c1ccc(Cl)cc1 (some centres not stated) | 
7.82 |  | CC[C@@H](C)Oc1cc2c(cc1OC)CC(=O)N(c1ccc(N(C)Cc3cccnc3)cc1)C2c1ccc(Cl)cc1 (some centres not stated) | 
6.77 |  | CC[C@@H](C)Oc1cc2c(cc1OC)CC(=O)N(c1ccc(N(C)Cc3cccc(F)c3)cc1)C2c1ccc(Cl)cc1 (some centres not stated) | 
